Columns and labels:
Assay in all cases: Test B pre-/postemergence plant response
Format in all cases: in vivo
[1] = test system: Italian ryegrass (Lolium multiflorum)
How it was run: (§1)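 Each species received compound formulated in non-phytotoxic solvent with surfactant, either at planting into a loam and sand blend or as a foliar spray once plants reached 2 to 18 cm in peat-based medium. Plants stayed in the greenhouse 13 to 15 days before visual evaluation against controls, scored 0 (no effect) to 100 (complete control).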

[2] = test system: bermudagrass (Cynodon dactylon); details: for Bermudagrass plant response rating: 0 no effect
How it was run: as §1

[3] = test system: cocklebur (Xanthium strumarium); details: for Cocklebur plant response rating: 250 g ai/ha
How it was run: as §1

[4] = test system: downy bromegrass (Bromus tectorum)
How it was run: as §1

kochia (Kochia scoparia) = details: Postemergence
How it was run: as §1

[5] = test system: large crabgrass (Digitaria sanguinalis)
How it was run: as §1

[6] = test system: morningglory (Ipomoea coccinea)
How it was run: as §1

soybean (Glycine max) = test system: soybean (Glycine max)
How it was run: as §1

[7] = test system: velvetleaf (Abutilon theophrasti)
How it was run: as §1

[8] = test system: wheat (Triticum aestivum)
How it was run: as §1

[9] = test system: woolly cupgrass (Eriochloa villosa)
How it was run: as §1

[10] = test system: yellow nutsedge (Cyperus esculentus)
How it was run: as §1

[11] = Postemergence, 31 g ai/ha, 0 to 100 scale (0 no effect, 100 complete control)
[12] = Postemergence, 62 g ai/ha, scale 0 to 100 (0 no effect, 100 complete control)
[13] = Postemergence, 250 g ai/ha, scale 0 to 100 (0 no effect, 100 complete control), 13 to 15 days
[14] = Preemergence, 31 g ai/ha, scale 0 to 100 (0 no effect, 100 complete control)
[15] = Preemergence, 62 g ai/ha, scale 0 to 100 (0 no effect, 100 complete control)
[16] = Preemergence, 125 g ai/ha, scale 0 to 100, 0 no effect, 100 complete control
[17] = Preemergence, 250 g ai/ha, 0 to 100 scale
[18] = Postemergence, 125 g ai/ha, scale 0 to 100 (0 no effect, 100 complete control)
[19] = Preemergence, 250 g ai/ha, 0 to 100 scale, 100 complete control
[20] = 31 g ai/ha, 0 to 100 scale (0 no effect, 100 complete control)
[21] = 62 g ai/ha, scale 0 to 100 (0 no effect, 100 complete control)
[22] = 125 g ai/ha, scale 0 to 100 (0 no effect, 100 complete control)
[23] = 250 g ai/ha, scale 0 to 100 (0 no effect, 100 complete control), 13 to 15 days
[24] = 16 g ai/ha, Postemergence, 0 to 100 scale

COc1ccc(-n2c(-c3ccccc3)ncc(C(=O)C3=C(O)CCCC3=O)c2=O)cc1OC [Compound 218]
20: Plant response rating, Bromegrass, Downy [4, 18] | Plant response rating, Crabgrass, Large [5, 15]
100: Plant response rating, Bermudagrass [2, 13] | Plant response rating, Bermudagrass [2, 15] | Plant response rating, Bermudagrass [2, 16] | Bermudagrass plant response rating [2, 19] | Cocklebur plant response rating ([3]; Preemergence, 0 to 100 scale) | Plant response rating, Kochia (kochia (Kochia scoparia); [22]) | Plant response rating, Kochia (kochia (Kochia scoparia); [23]) | Plant response rating, Soybean (soybean (Glycine max); [12]) | Plant response rating, Soybean (soybean (Glycine max); [13]) | Plant response rating, Velvetleaf [7, 12] | Plant response rating, Velvetleaf [7, 13] | Velvetleaf plant response rating [7, 17]
0: Plant response rating, Ryegrass, Italian [1, 14] | Plant response rating, Ryegrass, Italian [1, 15] | Plant response rating, Cocklebur [3, 15] | Plant response rating, Bromegrass, Downy [4, 14] | Plant response rating, Bromegrass, Downy [4, 15] | Plant response rating, Bromegrass, Downy [4, 16] | Bromegrass, Downy plant response rating [4, 17] | Plant response rating, Crabgrass, Large [5, 14] | Plant response rating, Morningglory [6, 14] | Plant response rating, Morningglory [6, 15] | Plant response rating, Soybean (soybean (Glycine max); [14]) | Plant response rating, Wheat [8, 11] | Plant response rating, Wheat [8, 12] | Plant response rating, Wheat [8, 13] | Plant response rating, Wheat [8, 14] | Plant response rating, Wheat [8, 15] | Plant response rating, Wheat [8, 16] | Wheat plant response rating [8, 17] | Plant response rating, Cupgrass, Woolly [9, 14] | Plant response rating, Cupgrass, Woolly [9, 15]
95: Plant response rating, Bermudagrass [2, 18]
10: Plant response rating, Nutsedge, Yellow [10, 11]
5: Plant response rating, Ryegrass, Italian [1, 16] | Ryegrass, Italian plant response rating [1, 17] | Plant response rating, Bromegrass, Downy [4, 11]
35: Plant response rating, Kochia (kochia (Kochia scoparia); [20])
65: Plant response rating, Crabgrass, Large [5, 16] | Morningglory plant response rating [6, 17] | Plant response rating, Soybean (soybean (Glycine max); [15]) | Plant response rating, Cupgrass, Woolly [9, 16]
45: Plant response rating, Crabgrass, Large [5, 12] | Plant response rating, Cupgrass, Woolly [9, 12] | Plant response rating, Nutsedge, Yellow [10, 14]
85: Plant response rating, Kochia (kochia (Kochia scoparia); [21]) | Plant response rating, Soybean (soybean (Glycine max); [11]) | Plant response rating, Velvetleaf [7, 11] | Plant response rating, Velvetleaf [7, 15] | Cupgrass, Woolly plant response rating [9, 17]
80: Plant response rating, Bermudagrass [2, 12] | Plant response rating, Morningglory [6, 18] | Plant response rating, Soybean (soybean (Glycine max); [16]) | Plant response rating, Velvetleaf [7, 14] | Plant response rating, Cupgrass, Woolly [9, 13]
75: Plant response rating, Nutsedge, Yellow [10, 15]
30: Plant response rating, Ryegrass, Italian [1, 11] | Plant response rating, Bromegrass, Downy [4, 13]
15: Plant response rating, Bromegrass, Downy [4, 12] | Plant response rating, Morningglory [6, 16] | Plant response rating, Nutsedge, Yellow [10, 12] | Plant response rating, Nutsedge, Yellow [10, 18]
70: Plant response rating, Ryegrass, Italian [1, 13] | Plant response rating, Bermudagrass [2, 11] | Plant response rating, Crabgrass, Large [5, 18] | Plant response rating, Morningglory [6, 11] | Plant response rating, Morningglory [6, 12]
60: Plant response rating, Cupgrass, Woolly [9, 18] | Plant response rating, Nutsedge, Yellow [10, 13]
98: Plant response rating, Bermudagrass [2, 14] | Crabgrass, Large plant response rating [5, 17] | Plant response rating, Morningglory [6, 13]
90: Plant response rating, Cocklebur [3, 16] | Plant response rating, Crabgrass, Large [5, 13] | Soybean plant response rating (soybean (Glycine max); [17]) | Plant response rating, Velvetleaf [7, 16] | Plant response rating, Nutsedge, Yellow [10, 16] | Nutsedge, Yellow plant response rating [10, 17]
40: Plant response rating, Ryegrass, Italian [1, 12] | Plant response rating, Crabgrass, Large [5, 11] | Plant response rating, Cupgrass, Woolly [9, 11]

CCc1ccc(-n2c(-c3ccccc3)ncc(C(=O)C3=C(O)CCCC3=O)c2=O)cc1 [Compound 219]
75: Plant response rating, Cocklebur [3, 15] | Soybean plant response rating (soybean (Glycine max); [17]) | Plant response rating, Velvetleaf [7, 15]
85: Cocklebur plant response rating ([3]; Preemergence, 0 to 100 scale) | Plant response rating, Morningglory [6, 12] | Plant response rating, Velvetleaf [7, 11] | Plant response rating, Cupgrass, Woolly [9, 11] | Plant response rating, Cupgrass, Woolly [9, 12] | Plant response rating, Nutsedge, Yellow [10, 13] | Plant response rating, Nutsedge, Yellow [10, 16]
70: Plant response rating, Nutsedge, Yellow [10, 18]
15: Plant response rating, Morningglory [6, 16]
98: Plant response rating, Bermudagrass [2, 12] | Plant response rating, Bermudagrass [2, 14] | Plant response rating, Kochia (kochia (Kochia scoparia); [21]) | Plant response rating, Kochia (kochia (Kochia scoparia); [22]) | Plant response rating, Crabgrass, Large [5, 13] | Plant response rating, Crabgrass, Large [5, 15] | Plant response rating, Soybean (soybean (Glycine max); [12]) | Plant response rating, Velvetleaf [7, 13] | Plant response rating, Cupgrass, Woolly [9, 13]
5: Plant response rating, Ryegrass, Italian [1, 16]
20: Plant response rating, Ryegrass, Italian [1, 11] | Bromegrass, Downy plant response rating [4, 17] | Plant response rating, Cupgrass, Woolly [9, 16]
0: Plant response rating, Ryegrass, Italian [1, 14] | Plant response rating, Ryegrass, Italian [1, 15] | Plant response rating, Bromegrass, Downy [4, 14] | Plant response rating, Bromegrass, Downy [4, 15] | Plant response rating, Morningglory [6, 14] | Plant response rating, Morningglory [6, 15] | Plant response rating, Soybean (soybean (Glycine max); [14]) | Plant response rating, Soybean (soybean (Glycine max); [15]) | Plant response rating, Velvetleaf [7, 14] | Plant response rating, Wheat [8, 14] | Plant response rating, Wheat [8, 15] | Plant response rating, Wheat [8, 16] | Wheat plant response rating [8, 17] | Plant response rating, Cupgrass, Woolly [9, 14] | Plant response rating, Nutsedge, Yellow [10, 14]
95: Plant response rating, Bermudagrass [2, 11] | Plant response rating, Crabgrass, Large [5, 12] | Plant response rating, Crabgrass, Large [5, 18] | Plant response rating, Soybean (soybean (Glycine max); [11]) | Velvetleaf plant response rating [7, 17] | Plant response rating, Cupgrass, Woolly [9, 18]
55: Plant response rating, Nutsedge, Yellow [10, 12]
65: Plant response rating, Soybean (soybean (Glycine max); [16])
50: Plant response rating, Bromegrass, Downy [4, 12] | Plant response rating, Wheat [8, 12] | Plant response rating, Wheat [8, 13]
25: Plant response rating, Ryegrass, Italian [1, 12]
60: Plant response rating, Morningglory [6, 11]
45: Plant response rating, Bromegrass, Downy [4, 11] | Plant response rating, Nutsedge, Yellow [10, 15]
100: Plant response rating, Bermudagrass [2, 18] | Plant response rating, Bermudagrass [2, 13] | Plant response rating, Bermudagrass [2, 15] | Plant response rating, Bermudagrass [2, 16] | Bermudagrass plant response rating [2, 19] | Plant response rating, Kochia (kochia (Kochia scoparia); [23]) | Plant response rating, Crabgrass, Large [5, 16] | Crabgrass, Large plant response rating [5, 17] | Plant response rating, Morningglory [6, 18] | Plant response rating, Morningglory [6, 13] | Morningglory plant response rating [6, 17] | Plant response rating, Soybean (soybean (Glycine max); [13])
40: Plant response rating, Ryegrass, Italian [1, 13] | Plant response rating, Wheat [8, 11]
10: Ryegrass, Italian plant response rating [1, 17] | Plant response rating, Bromegrass, Downy [4, 16] | Plant response rating, Crabgrass, Large [5, 14] | Plant response rating, Cupgrass, Woolly [9, 15] | Plant response rating, Nutsedge, Yellow [10, 11]
90: Plant response rating, Crabgrass, Large [5, 11] | Plant response rating, Velvetleaf [7, 12] | Plant response rating, Velvetleaf [7, 16] | Nutsedge, Yellow plant response rating [10, 17]
80: Plant response rating, Bromegrass, Downy [4, 18] | Plant response rating, Bromegrass, Downy [4, 13] | Plant response rating, Kochia (kochia (Kochia scoparia); [20]) | Cupgrass, Woolly plant response rating [9, 17]

CC1(C)CC(=O)C(C(=O)c2cnc(-c3ccccc3)n(-c3ccccc3)c2=O)=C(O)C1 [Compound 225]
75: Plant response rating, Crabgrass, Large [5, 11] | Plant response rating, Cupgrass, Woolly [9, 11] | Plant response rating, Cupgrass, Woolly [9, 12]
15: Plant response rating, Kochia (kochia (Kochia scoparia); [22])
0: Plant response rating, Ryegrass, Italian [1, 24] | Plant response rating, Ryegrass, Italian [1, 11]
20: Plant response rating, Wheat [8, 24]
80: Plant response rating, Bermudagrass [2, 11] | Plant response rating, Morningglory [6, 24] | Plant response rating, Velvetleaf [7, 24] | Plant response rating, Velvetleaf [7, 11]
30: Plant response rating, Bromegrass, Downy [4, 24] | Plant response rating, Wheat [8, 11]
98: Plant response rating, Cocklebur [3, 11]
85: Plant response rating, Bermudagrass [2, 12] | Plant response rating, Bermudagrass [2, 18] | Plant response rating, Cocklebur [3, 24] | Plant response rating, Bromegrass, Downy [4, 18] | Plant response rating, Crabgrass, Large [5, 12] | Plant response rating, Soybean (soybean (Glycine max); [11]) | Plant response rating, Cupgrass, Woolly [9, 18]
70: Plant response rating, Bromegrass, Downy [4, 12] | Plant response rating, Crabgrass, Large [5, 24] | Plant response rating, Cupgrass, Woolly [9, 24]
10: Plant response rating, Kochia (kochia (Kochia scoparia); [21]) | Plant response rating, Nutsedge, Yellow [10, 11]
5: Plant response rating, Kochia (kochia (Kochia scoparia); 16 g ai/ha, 0 to 100 scale) | Plant response rating, Kochia (kochia (Kochia scoparia); [20]) | Plant response rating, Nutsedge, Yellow [10, 24]
95: Plant response rating, Crabgrass, Large [5, 18] | Plant response rating, Morningglory [6, 11] | Plant response rating, Morningglory [6, 12] | Plant response rating, Morningglory [6, 18] | Plant response rating, Soybean (soybean (Glycine max); [12])
100: Plant response rating, Cocklebur [3, 12] | Plant response rating, Cocklebur [3, 18]
35: Plant response rating, Ryegrass, Italian [1, 12] | Plant response rating, Bromegrass, Downy [4, 11]
40: Plant response rating, Bermudagrass [2, 24] | Plant response rating, Wheat [8, 12]
90: Plant response rating, Velvetleaf [7, 12]
25: Plant response rating, Nutsedge, Yellow [10, 12] | Plant response rating, Nutsedge, Yellow [10, 18]
65: Plant response rating, Soybean (soybean (Glycine max); [24])

From US8952024B2, “Herbicidal pyrimidone derivatives” (E I du Pont de Nemours and Company, priority 2009, dated 2015)
